Assay [1] has as its target T1, human recombinant kinase full-length AKT1 E17K (Homo sapiens, UniProt P31749, E17K).
T1 construct: Purified human recombinant kinase full-length AKT1 E17K was expressed in insect cells; made in house; host or cells: insect cells
In words: AKT1 E17K kinase assay (TR-FRET, Lance). It is filed as biochemical. The following applies: 0.6 nM AKT1 E17K, 50 nM Ulight-CREBtide, either 50 μM ATP or 2 mM ATP, 60 min at RT. How it is done: AKT1 E17K kinase assay: Inhibitory effects of compounds on AKT1 E17K were undertaken in a 10-pt dose response kinase activity assay measuring phospho-peptide product formation based on TR-FRET signal as described in the following paragraph.
(§1) Purified human recombinant kinase full-length AKT1 E17K was expressed in insect cells and activated in vitro by PDPK1. Ulight™-CREBtide (PerkinElmer, catalog number TRF0107) was used as the peptide substrate. The reaction buffer consisted of 50 mM HEPES pH 7.5, 10 mM MgCl2, 0.01% Triton X-100, 0.01% BSA, 2 mM DTT, 0.6 nM AKT1 E17K, 50 nM Ulight™-CREBtide and either 50 μM ATP or 2 mM ATP. The compound solution was prepared as 10 mM DMSO stock. For the assay, a 1.3 serial dilution 10-pt dose response of test compounds, in duplicate, for each concentration were dispensed into a 384-well plate (Corning, catalog number 4513). Final DMSO concentration in the assay was 1%. The enzyme mixture (5 μL, 1.2 nM) were added and the mixture was incubated for 15 min at RT prior to the start of the kinase reaction by the addition of 5 μL substrate mixture (100 nM Ulight™-CREBtide). The reaction was stopped after 60 min of incubation at RT by the addition of 10 μL of Detection Mix (PerkinElmer, #CR97-100) consisting of Europium-anti-phospho-CREB (Ser133) (Perkin Elmer, catalog number TRF0200). Incubation with the detection mix for a further 60 min allowed binding of antibody to the phospho-Ulight™ CREBtide. The fluorescence emissions at 620 nm and 665 nm after excitation at 350 nm was measured using Envision reader. The ratio of the emissions at 665 nm and at 620 nm provided the measure for the amount of phosphorylated CREBtide product of AKT1 E17K kinase activity. To determine the IC50 values, the data was normalized (enzyme reaction without inhibitor=0% inhibition, all other assay components but no enzyme=100% inhibition) and IC50 values were calculated by a 4-parameter fit using an in-house developed protocol.
Table 9 assigns each compound a code for potency in the AKT1 E 17K kinase assay: A, B, or C. According to the code, A represents an IC50 value <500 nM; B represents an IC50 value from ≥500 nM to <2000 nM; and C represents an IC50 value ≥2000 nM.

The target in assay [2] is T2, human recombinant kinase full-length wildtype AKT1 (Homo sapiens, UniProt P31749).
T2 construct: Purified human recombinant kinase full-length wildtype AKT1 was expressed in insect cells; made in house; host or cells: insect cells
Kind of assay: AKT1 kinase assay (wildtype, TR-FRET, Lance). It is filed as biochemical. The following applies: 0.6 nM wildtype AKT1, 50 nM Ulight-CREBtide, either 50 μM ATP or 2 mM ATP, 60 min at RT. How it is done: AKT1 kinase assay: Inhibitory effects of compounds on wildtype AKT1 were undertaken in a 10-pt dose response kinase activity assay measuring phospho-peptide product formation based on TR-FRET signal as described in the following paragraph.
as §1, with “full-length wildtype” for “full-length”, “AKT1” for “AKT1 E17K”, “AKT1,50” for “AKT1 E17K, 50”, “1:3” for “1.3”
The symbol +++ represents an IC50 value <20 μM; the symbol ++ represents an IC50 value from ≥20 μM to 80 μM.

21 compounds from patent US20260200920A1, “SUBSTITUTED AMINOPYRIDINE COMPOUNDS FOR USE AS AKT1 INHIBITORS” (Atavistik Bio, Inc., priority 2023, published 2026) can be followed below.

T2 sequence (P31749 whole entry): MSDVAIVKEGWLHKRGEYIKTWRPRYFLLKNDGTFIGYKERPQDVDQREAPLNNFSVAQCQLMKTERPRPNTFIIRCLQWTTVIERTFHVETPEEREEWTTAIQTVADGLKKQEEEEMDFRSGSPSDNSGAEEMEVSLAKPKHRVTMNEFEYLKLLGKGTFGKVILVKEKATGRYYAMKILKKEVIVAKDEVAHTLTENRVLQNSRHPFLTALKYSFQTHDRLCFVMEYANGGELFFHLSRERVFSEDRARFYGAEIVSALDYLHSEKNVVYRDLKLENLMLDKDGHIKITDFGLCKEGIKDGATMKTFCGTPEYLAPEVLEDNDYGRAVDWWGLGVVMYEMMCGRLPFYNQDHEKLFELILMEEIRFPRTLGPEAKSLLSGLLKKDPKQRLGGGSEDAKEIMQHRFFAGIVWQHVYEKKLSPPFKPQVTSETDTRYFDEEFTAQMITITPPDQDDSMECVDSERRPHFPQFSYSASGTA
T1 sequence (P31749 whole entry E17K): as the sequence (P31749 whole entry) above, with E17K counted along it

For `CN(Cc1ccc(-n2c(-c3cccnc3N)nc3ccc(-c4ccccc4)nc32)cc1)[C@@H]1CC[C@@H](C(=O)O)C1` (stereo in doubt) [Compound I-171], the figures for the IC50 in assay [1] and in assay [2] were under 0.5 µM and under 20 µM, respectively.
As for `CC1(C)C[C@H](CN2CCC(c3ccc(-n4c(-c5cccnc5N)nc5ccc(-c6ccccc6)nc54)cc3)CC2)CC(C)(C)[C@@H]1C(=O)O` [Compound I-197], the IC50 in assay [1] is at least 2 µM; in assay [2] it was under 20 µM.
Regarding `CC(C)(N[C@@H]1CC[C@H](C(=O)O)C1)c1ccc(-n2c(-c3cccnc3N)nc3ccc(-c4ccccc4)nc32)cc1` [Compound I-88, (1S,3R)-3-((2-(4-(2-(2-aminopyridin-3-yl)-5-phenyl-3H-imidazo[4,5-b]pyridin-3-yl)phenyl)propan-2-yl)amino)cyclopentane-1-carboxylic acid], the IC50 in assay [1] was at least 2 µM; in assay [2], under 20 µM.
With `Cc1nc(NC(=O)[C@H]2CC[C@H](C(=O)O)CC2)ccc1-n1c(-c2cccnc2N)nc2ccc(-c3ccc(F)cc3F)nc21` [Compound I-216], the concentration for half-maximal inhibition (IC50) was at least 2 µM in assay [1] and under 20 µM in assay [2].
Take `Cc1nc(NC(=O)C2CCC(C(=O)O)C2)ccc1-n1c(-c2cccnc2N)nc2ccc(-c3ccccc3)nc21` (stereo not drawn) [Compound I-129, 3-((5-(2-(2-aminopyridin-3-yl)-5-phenyl-3H-imidazo[4,5-b]pyridin-3-yl)-6-methylpyridin-2-yl)carbamoyl)cyclopentane-1-carboxylic acid]: the IC50 in assay [1] was 0.5 to 2 µM; in assay [2], under 20 µM.
In the case of `Nc1ncccc1-c1nc2ccc(-c3ccccc3F)nc2n1-c1ccc(C2CN(CC34CCC(C(=O)O)(CC3)CC4)C2)cc1` [Compound I-203], the IC50 in assay [1] is under 0.5 µM; in assay [2], under 20 µM.
Regarding `Cc1cc(C2CN(C[C@H]3CC[C@@H](C(=O)O)CC3)C2)ccc1-n1c(-c2cccnc2N)nc2ccc(-c3ccccc3)nc21` [Compound I-205], the IC50 in assay [1] is 0.5 to 2 µM; in assay [2], under 20 µM.
`CC1(C(=O)O)CCN(C(=O)c2ccc(-n3c(-c4cccnc4N)nc4ccc(-c5ccccc5)nc43)cn2)CC1` [Compound I-23, 1-(5-(2-(2-aminopyridin-3-yl)-5-phenyl-3H-imidazo[4,5-b]pyridin-3-yl)picolinoyl)-4-methylpiperidine-4-carboxylic acid]: the IC50 in assay [1] is at least 2 µM; in assay [2], 20 to 80 µM.
As for `Nc1ncccc1-c1nc2ccc(-c3ccccc3)nc2n1-c1ccc(N2CCCC(C(=O)O)C2)nc1` (stereo not drawn) [Compound I-28, 1-(5-(2-(2-aminopyridin-3-yl)-5-phenyl-3H-imidazo[4,5-b]pyridin-3-yl)pyridin-2-yl)piperidine-3-carboxylic acid], the IC50 in assay [1] was at least 2 µM; in assay [2], under 20 µM.
On to `Nc1ncccc1-c1nc2ccc(-c3ccccc3)nc2n1-c1ccc(C(=O)N[C@H]2CC[C@@H](C(=O)O)CC2)nc1` [Compound I-18, (1s,4s)-4-(5-(2-(2-aminopyridin-3-yl)-5-phenyl-3H-imidazo[4,5-b]pyridin-3-yl)picolinamido)cyclohexane-1-carboxylic acid], for which the IC50 in assay [1] was at least 2 µM; in assay [2], under 20 µM.
On to `CC1(C)C[C@H](CN2CC(c3ccc(-n4c(-c5cccnc5N)nc5ccc(-c6ccccc6)nc54)cc3)C2)CC(C)(C)[C@@H]1C(=O)O` [Compound I-148], for which the IC50 in assay [1] is under 0.5 µM; in assay [2], under 20 µM.
The corresponding values for `CC(c1ccc(-n2c(-c3cccnc3N)nc3ccc(-c4ccccc4)nc32)cc1)N1CCC(C(=O)O)C1` (stereo not drawn) [Compound I-84, 1-(1-(4-(2-(2-aminopyridin-3-yl)-5-phenyl-3H-imidazo[4,5-b]pyridin-3-yl)phenyl)ethyl)pyrrolidine-3-carboxylic acid] are at least 2 µM and under 20 µM.
Take `C[C@H]([C@H]1CC[C@H](C(=O)O)CC1)N1CC(c2ccc(-n3c(-c4cccnc4N)nc4ccc(-c5ccccc5)nc43)cc2)C1` [Compound I-59, (1R,4r)-4-((R)-1-(3-(4-(2-(2-aminopyridin-3-yl)-5-phenyl-3H-imidazo[4,5-b]pyridin-3-yl)phenyl)azetidin-1-yl)ethyl)cyclohexane-1-carboxylic acid]: the IC50 was under 0.5 µM in assay [1] and under 20 µM in assay [2].
As to `Cc1nc(NC(=O)[C@H]2CC[C@H](C(=O)O)CC2)ccc1-n1c(-c2cccnc2N)nc2ccc(-c3c(F)cccc3F)nc21` [Compound I-217], the IC50 is 0.5 to 2 µM in assay [1] and under 20 µM in assay [2].
On to `CN(Cc1ccc(-n2c(-c3cccnc3N)nc3ccc(-c4ccccc4)nc32)cc1)C1CC[C@H](C(=O)O)C1` (stereo partly drawn) [Compound I-172], for which the figures for the IC50 in assay [1] and in assay [2] were under 0.5 µM and under 20 µM, respectively.
Turning to `Cc1nc(NC(=O)[C@H]2CC[C@H](C(N)=O)CC2)ccc1-n1c(-c2cccnc2N)nc2ccc(-c3ccccc3)nc21` [Compound I-142, trans-N-(5-(2-(2-aminopyridin-3-yl)-5-phenyl-3H-imidazo[4,5-b]pyridin-3-yl)-6-methylpyridin-2-yl)cyclohexane-1,4-dicarboxamide], the half-inhibitory concentration (IC50) in assay [1] was 0.5 to 2 µM; in assay [2], under 20 µM.
The corresponding values for `Nc1ncccc1-c1nc2ccc(-c3ccccc3)nc2n1-c1ccc(CCN2CCC(C(=O)O)C2)cc1` (stereo not drawn) [Compound I-159] are under 0.5 µM and under 20 µM.
Turning to `Nc1ncccc1-c1nc2ccc(-c3ccccc3)nc2n1-c1ccc(C(=O)N[C@H]2CC[C@@H](C(=O)O)CC2)cc1` [Compound I-17, (1s,4s)-4-(4-(2-(2-aminopyridin-3-yl)-5-phenyl-3H-imidazo[4,5-b]pyridin-3-yl)benzamido)cyclohexane-1-carboxylic acid], the IC50 is 0.5 to 2 µM in assay [1] and under 20 µM in assay [2].
As to `Nc1ncccc1-c1nc2cc(-c3ccc(F)cc3)cnc2n1-c1ccc(C2CN(C[C@H]3CC[C@H](C(=O)O)CC3)C2)cc1` [Compound I-67, (1r,4r)-4-((3-(4-(2-(2-aminopyridin-3-yl)-6-(4-fluorophenyl)-3H-imidazo[4,5-b]pyridin-3-yl)phenyl)azetidin-1-yl)methyl)cyclohexane-1-carboxylic acid], the values for the IC50 in assay [1] and in assay [2] were at least 2 µM and under 20 µM, respectively.
`CC1(C)C[C@H](CN2CC(c3ccc(-n4c(-c5cccnc5N)nc5ccc(-c6ccccc6)nc54)cc3)C2)CC(C)(C)[C@H]1C(=O)O` [Compound I-147]: the IC50 is under 0.5 µM in assay [1] and under 20 µM in assay [2].
The like results for `Nc1ncccc1-c1nc2ccc(-c3ccccc3)nc2n1-c1ccc(NC(=O)N2CCC(C(=O)O)CC2)c(F)c1` [Compound I-106, 1-[[4-[2-(2-amino-3-pyridyl)-5-phenyl-imidazo[4,5-b]pyridin-3-yl]-2-fluoro-phenyl]carbamoyl]piperidine-4-carboxylic acid] were, in that order, 0.5 to 2 µM and under 20 µM.
